One block for each compound: values may come before it.
Columns and labels:
[1] = target: T1, 4-hydroxyphenylpyruvate dioxygenase (Arabidopsis thaliana, UniProt P93836); assay: Inhibition of Arabidopsis thaliana HPPD expressed in Escherichia coli BL21(DE3) using HPPA as substrate after 10 mins by UV-Vis spectrometric analysis
T1 sequence (P93836 whole entry): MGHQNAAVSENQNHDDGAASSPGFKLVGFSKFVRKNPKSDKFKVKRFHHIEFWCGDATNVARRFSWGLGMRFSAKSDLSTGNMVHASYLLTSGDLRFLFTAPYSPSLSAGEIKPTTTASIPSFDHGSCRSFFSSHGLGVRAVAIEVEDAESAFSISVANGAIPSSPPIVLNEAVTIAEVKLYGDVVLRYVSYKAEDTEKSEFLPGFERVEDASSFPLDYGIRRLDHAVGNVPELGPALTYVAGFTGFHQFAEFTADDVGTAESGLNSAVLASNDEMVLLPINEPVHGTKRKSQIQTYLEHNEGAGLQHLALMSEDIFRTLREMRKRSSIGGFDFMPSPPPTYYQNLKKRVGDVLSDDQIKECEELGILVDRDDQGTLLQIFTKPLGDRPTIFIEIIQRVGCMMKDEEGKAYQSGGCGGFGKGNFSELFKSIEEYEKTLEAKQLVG

[2] = target: T2, 4-hydroxyphenylpyruvate dioxygenase (Sus scrofa, UniProt Q02110); assay: Inhibition of pig liver HPPD using 4-hydroxyphenylpyruvic acid as substrate after 15 mins by spectrophotometric analysis
T2 sequence (Q02110 whole entry): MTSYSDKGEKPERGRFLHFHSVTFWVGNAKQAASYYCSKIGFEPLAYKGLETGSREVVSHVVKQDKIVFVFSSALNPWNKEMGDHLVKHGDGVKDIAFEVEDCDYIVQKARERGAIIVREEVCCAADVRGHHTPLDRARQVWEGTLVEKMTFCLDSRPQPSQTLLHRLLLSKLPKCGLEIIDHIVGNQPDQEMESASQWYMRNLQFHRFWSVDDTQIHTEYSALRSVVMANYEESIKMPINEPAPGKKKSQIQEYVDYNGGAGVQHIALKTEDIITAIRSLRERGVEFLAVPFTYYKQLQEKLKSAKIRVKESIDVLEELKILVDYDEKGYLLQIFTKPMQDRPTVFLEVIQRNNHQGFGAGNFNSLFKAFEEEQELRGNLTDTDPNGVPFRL

[3] = target: T1, 4-hydroxyphenylpyruvate dioxygenase; assay: Inhibition of Arabidopsis thaliana HPPD expressed in Escherichia coli JM109 using HPPA as substrate after 10 mins
[4] = target: T3, 4-hydroxyphenylpyruvate dioxygenase (Daucus carota, UniProt O23920); assay: Inhibition of carrot HPPD expressed in Escherichia coli JM105 using HPPA as substrate
T3 sequence (O23920 whole entry): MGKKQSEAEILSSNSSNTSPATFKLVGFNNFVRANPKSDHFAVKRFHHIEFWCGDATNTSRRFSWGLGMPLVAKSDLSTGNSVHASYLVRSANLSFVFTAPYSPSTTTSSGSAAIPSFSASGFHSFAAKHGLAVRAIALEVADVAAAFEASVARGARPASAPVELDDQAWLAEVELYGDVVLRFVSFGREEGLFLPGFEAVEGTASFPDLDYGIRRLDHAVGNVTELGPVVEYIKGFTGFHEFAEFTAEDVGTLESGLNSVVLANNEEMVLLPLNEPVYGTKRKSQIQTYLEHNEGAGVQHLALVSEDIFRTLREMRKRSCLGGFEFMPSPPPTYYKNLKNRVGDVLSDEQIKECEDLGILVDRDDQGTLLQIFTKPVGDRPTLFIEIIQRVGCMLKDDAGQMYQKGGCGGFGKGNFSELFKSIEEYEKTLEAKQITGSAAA

[5] = target: T4, 4-hydroxyphenylpyruvate dioxygenase (Daucus carota) (UniProt O23920); assay: Inhibition of carrot HPPD expressed in Escherichia coli JM105 assessed as dissociation half life using HPPA as substrate
T4 sequence (whole entry): T3 sequence (O23920 whole entry)

[6] = target: T1, 4-hydroxyphenylpyruvate dioxygenase; assay: Inhibition of Arabidopsis thaliana HPPD expressed in Escherichia coli JM105 using 4-HPP as substrate preincubated for 15 mins followed by substrate addition measured after 15 mins by HPLC analysis
[7] = Half life in human plasma at 1 mg/kg
Homo sapiens [8] = assay: In vivo inhibition of HPPD in human assessed dissociation half life for enzyme-compound complex in plasma; assay type: functional, organism-based
[9] = In vitro half life of rat HPPD complex
Rattus norvegicus [10] = assay: In vivo inhibition of Tyr hydroxylase in rat assessed as tyr concentration in plasma by colorimetric assay (reference value: 0.1 mM); assay type: functional
Homo sapiens [11] = assay: Effect on tyrosine level in plasma in human at 1 mg/kg, po under uncontrolled diet (reference value: 0.076 mM); assay type: ADME, organism-based; conditions: in vivo
Homo sapiens [12] = assay: Effect on tyrosine level in plasma in human at 1 mg/kg, po up to 120 hrs (reference value: 0.076 mM); conditions: in vivo
Rattus norvegicus [13] = organism: Rattus norvegicus
Description: In vivo inhibition of HPPD in rat assessed dissociation half life for enzyme-compound complex in plasma

[14] = target: 4-hydroxyphenylpyruvate dioxygenase (Rattus norvegicus) (UniProt P32755); conditions: Wistar, 50 nM
4-hydroxyphenylpyruvate dioxygenase (Rattus norvegicus), sequence (P32755 whole entry): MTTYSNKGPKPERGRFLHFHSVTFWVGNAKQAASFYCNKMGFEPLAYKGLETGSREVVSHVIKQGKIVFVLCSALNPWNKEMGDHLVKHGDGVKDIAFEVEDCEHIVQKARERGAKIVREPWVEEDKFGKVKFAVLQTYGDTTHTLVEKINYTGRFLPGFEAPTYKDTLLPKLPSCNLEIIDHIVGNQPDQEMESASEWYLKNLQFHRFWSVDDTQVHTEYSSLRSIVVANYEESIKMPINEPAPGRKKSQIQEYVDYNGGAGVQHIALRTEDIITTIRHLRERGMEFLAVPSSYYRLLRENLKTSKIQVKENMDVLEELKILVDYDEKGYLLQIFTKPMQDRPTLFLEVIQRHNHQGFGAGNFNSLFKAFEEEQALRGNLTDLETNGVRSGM
Description: Inhibition of Wistar rat liver HPPD using 4-Hydroxyphenylpyruvate as substrate assessed as reduction in oxygen consumption at 50 nM preincubated for 3 mins followed by substrate addition measured after 30 secs

Rattus norvegicus [15] = assay: In vivo inhibition of HGD activity in rat assessed as micoL of O2 consumed in liver cytosol at 5 to 100 mg/kg/day measured after 90 days relative to control; assay type: functional
Rattus norvegicus [16] = assay: In vivo inhibition of HPPD activity in rat assessed as micoL of O2 consumed in liver cytosol at 0.1 to 5 mg/kg/day measured after 90 days (reference value: 91%); assay type: functional
Rattus norvegicus [17] = assay: In vivo inhibition of TAT activity in rat assessed as 4-hydroxyphenylpyruvate formed in liver cytosol at 50 to 100 mg/kg/day measured after 90 days relative to control; assay type: functional
[18] = target: T5, 4-hydroxyphenylpyruvate dioxygenase (Arabidopsis thaliana) (UniProt P93836); assay: Inhibition of Arabidopsis thaliana HPPD
T5 sequence (whole entry): T1 sequence (P93836 whole entry)

Plasmodium falciparum [19] = assay: Antiparasitic activity against chloroquine-sensitive Plasmodium falciparum; assay type: functional
Plasmodium falciparum [20] = assay: Antiparasitic activity against chloroquine-resistant Plasmodium falciparum; assay type: functional
[21] = Half life in human plasma at 1 mg/kg administered as capsule; assay type: ADME, organism-based; conditions: po
[22] = Half life in human plasma at 1 mg/kg administered as solution; assay type: ADME, organism-based
Homo sapiens [23] = organism: Homo sapiens; assay: Inhibition of TAT in human Fibroblasts assessed as reduction in tyrosine level at 10 uM after 72 hrs by LC-MS/MS analysis relative to control
Homo sapiens [24] = assay: In vivo inhibition of HPPD in human assessed as blood tyrosine levels at 4 mg/kg measured up to 120 hrs; assay type: functional
[25] = target: T2, 4-hydroxyphenylpyruvate dioxygenase; assay: Inhibition of pig liver HPPD using HPP as substrate after 15 mins
[26] = target: T1, 4-hydroxyphenylpyruvate dioxygenase; assay: Inhibition of Arabidopsis thaliana HPPD expressed in Escherichia coli JM105 using HPPA as substrate after preincubated for 15 min followed by substrate addition by HPLC analysis
Fibroblast = assay: Cytotoxicity against human Fibroblast assessed as reduction in cell viability after 24 to 144 hrs by MTT assay
Homo sapiens [27] = organism: Homo sapiens; assay: Inhibition of TAT in human Fibroblasts assessed as reduction in tyrosine level at 0.1 uM after 72 hrs by LC-MS/MS analysis relative to control

SMILES: CCn1c(=O)n(-c2ccccc2C)c(=O)c2cc(C(=O)C3C(=O)CCCC3=O)ccc21
Ki [1]: 0.005 µM

IC50 [2]: 0.015 µM
SMILES: O=C1CCCC(OC(=O)C2CC2)=C1Cl

Ki [3]: 0.031 to 0.037 µM
SMILES: O=C1CCCC(=O)C1C(=O)COc1ccc(Cl)cc1

Kd [4]: 0.006 µM
T1/2 [5]: 2 h
SMILES: CS(=O)(=O)c1cc(C(F)(F)F)ccc1C(=O)C(C#N)C(=O)C1CC1 (stereo unspecified)

IC50 [2]: 0.7 µM
SMILES: O=C1CCCCC1C(=O)c1ccccc1[N+](=O)[O-] (stereo unspecified)

SMILES: CCCCCCCCCC(=O)C1C(=O)C(C)(C)C(=O)C(C)(C)C1=O
IC50 [6]: 0.019 µM

SMILES: COc1nc2c(C)cccc2cc1C(=O)C1C(=O)CC(C)CC1=O (stereo unspecified)
Ki [1]: 0.007 to 0.009 µM

SMILES: O=C1CCCC(=O)C1C(=O)c1ccc(C(F)(F)F)cc1[N+](=O)[O-] [NITISINONE]
half-life [7]: 53 h
T1/2 (Homo sapiens [8]): 53 h
half-life [9]: 63 h
Activity (Rattus norvegicus [10]): >2 mM
Activity (Homo sapiens [11]): 0.136 mM
Activity (Homo sapiens [12]): 1.1 mM
T1/2 (Rattus norvegicus [13]): 63 h
inhibition [14]: 50%

SMILES: COc1nc2c(C)cccc2cc1C(=O)C1C(=O)CCCC1=O
Ki [1]: 0.007 to 0.009 µM

SMILES: CS(=O)(=O)c1ccc(C(=O)C2C(=O)CCCC2=O)c(Cl)c1 [SULCOTRIONE]
inhibition (INH) (Rattus norvegicus [15]): 29 - 46%
inhibition (INH) (Rattus norvegicus [16]): 96%
inhibition (INH) (Rattus norvegicus [17]): 43 - 175%

INH [18]: 600 nM
SMILES: Cc1c(C(=O)c2cn[nH]c2O)ccc(S(C)(=O)=O)c1C1=NOCC1

SMILES: O=C1CCCC(=O)C1C(=O)COc1ccccc1Cl
Ki [3]: 0.031 to 0.037 µM

IC50 [2]: 126 µM
SMILES: O=C1CCCC(=O)C1Cc1ccccc1[N+](=O)[O-]

SMILES: Cc1c(O)c(C(=O)CCc2ccccc2)c2c(c1O)[C@@H]1C3=C(O[C@]1(C(C)C)O2)C(C)(C)C(=O)C(C)(C)C3=O
IC50 (Plasmodium falciparum [19]): 0.4 µM
IC50 (Plasmodium falciparum [20]): 0.3 µM

SMILES: CS(=O)(=O)c1ccc(C(=O)C2C(=O)CCCC2=O)c([N+](=O)[O-])c1 [MESOTRIONE]
half-life [21]: 1 h
half-life [22]: 1 h
inhibition (Homo sapiens [23]): 14%
Activity (Homo sapiens [24]): <0.5 mM

IC50 [25]: 10 µM
SMILES: O=C(O)C(O)(O)C(F)c1ccccc1 (stereo unspecified)

SMILES: Cc1cccc2cc(C(=O)C3C(=O)CCCC3=O)c(C#N)nc12
Ki [1]: 0.007 to 0.009 µM

SMILES: CC(=O)C1=C(O)C=C2Oc3c(C(C)=O)c(O)c(C)c(O)c3[C@@]2(C)C1=O [(+)-USNIC ACID]
IC50 [26]: 0.07 µM

Ki [3]: 0.031 to 0.037 µM
SMILES: Cc1ccccc1OCC(=O)C1C(=O)CCCC1=O

IC50 [2]: 0.028 µM
SMILES: O=C1CCCC(OC(=O)C2CC2)=C1Br

IC50 [6]: 11.8 µM
SMILES: CC(C)CC(=O)C1C(=O)C(C)(C)C(=O)C(C)(C)C1=O

Ki [3]: 0.031 to 0.037 µM
SMILES: O=C1CCCC(=O)C1C(=O)COc1ccc([N+](=O)[O-])cc1

SMILES: Cc1cc(C2C(=O)C(C(=O)c3ccc(Cl)cc3)C(=O)CC2(C)C)on1 (stereo unspecified)
Activity (Fibroblast): > 1 mM

SMILES: Cc1cccc2cc(C(=O)C3C(=O)CC(C)CC3=O)c(C#N)nc12 (stereo unspecified)
Ki [1]: 0.007 to 0.009 µM

SMILES: CC1(C)C(=O)C(C(=O)CCc2ccccc2)C(=O)C(C)(C)C1=O
IC50 [6]: 0.75 µM

IC50 [26]: 73 µM
SMILES: O=C1C[C@@H](c2ccccc2)Oc2cc(O)cc(O)c21 [PINOCEMBRIN]

SMILES: Cc1nc2c(C)cccc2cc1C(=O)C1C(=O)CC(C)CC1=O (stereo unspecified)
Ki [1]: 0.007 to 0.009 µM

inhibition (Homo sapiens [27]): 7%
SMILES: CC1(C)CC(=O)C(C(=O)c2ccc([N+](=O)[O-])cc2Cl)C(=O)C1
Activity (Fibroblast): > 1 mM

SMILES: Cc1c(C(=O)c2cnn(C)c2O)ccc(S(C)(=O)=O)c1C1=NOCC1
INH [18]: 23 nM

SMILES: CS(=O)(=O)c1ccc(C(=O)C2C(=O)CCCC2=O)c(Cl)c1COCC(F)(F)F [TEMBOTRIONE]
Ki [3]: 0.013 µM

SMILES: Cc1nc2c(C)cccc2cc1C(=O)C1C(=O)CCCC1=O
Ki [1]: 0.007 to 0.009 µM
